This series can be described thus: Thermogravimetric analysis (TGA) of the crystal forms. It is filed as physicochemical. On the procedure:
4) TGA method Instrument model: Netzsch TG 209F3, temperature range 30-400° C., scan rate 10K/min, purge gas flow rate 25 mL/min, shielding gas flow rate 15 mL/min.

`CNCc1ccc(-c2cc3cc(F)cc(C(N)=O)c3o2)cc1.Cl` [crystal form A, 2-[4-(methylaminomethyl)phenyl]-5-fluoro-benzofuran-7-carboxamide hydrochloride]: for the setting “conclusion from the DSC/TG experimental results”, the thermal stability result is given as “good thermal stability”.

Take `CNCc1ccc(-c2cc3cc(F)cc(C(N)=O)c3o2)cc1.Cl` [crystal form C, 2-[4-(methylaminomethyl)phenyl]-5-fluoro-benzofuran-7-carboxamide hydrochloride]: the “temperature at which the crystal form begins to decompose according to the thermogravimetric analysis” value (TG, 30-400° C., scan rate 10K/min) was 250±20 °C.

These data come from patent publication US11174237B2, “2-[4-(meihylaminomethyl)phenyl]-5-fluoro- benzofuran-7-carboxamide hydrochloride polymorph, preparation method therefor and application thereof” (SHANGHAI INSTITUTE OF MATERIA MEDICA, CHINESE ACADEMY OF …, priority 2017, dated 2021).
